Data: publication doi:10.1101/2025.03.26.645513v1 (biorxiv, 2025)

Tests used:
Experiment in all cases: acid ninhydrin cysteine assay, A560
SaCysK [1] = biological target: T1, SaCysK (Staphylococcus aureus, UniProt P63871); format: biochemical; settings: substrate inhibition constant, MOPS, 37 °C, no glycerol
T1 sequence (P63871 1-310): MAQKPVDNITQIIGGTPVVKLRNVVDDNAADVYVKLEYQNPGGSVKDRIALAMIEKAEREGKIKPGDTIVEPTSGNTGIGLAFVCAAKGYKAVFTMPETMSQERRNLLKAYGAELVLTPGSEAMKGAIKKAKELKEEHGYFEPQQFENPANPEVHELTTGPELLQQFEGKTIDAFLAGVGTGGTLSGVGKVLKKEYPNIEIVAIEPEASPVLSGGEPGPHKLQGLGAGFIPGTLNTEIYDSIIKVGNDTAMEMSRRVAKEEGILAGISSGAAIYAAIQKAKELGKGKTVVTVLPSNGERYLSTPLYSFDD

NgCysK = NgCysK (Neisseria gonorrhoeae, UniProt Q5F9Q2); settings: read-out: Khalf; 10 mM OAS; MOPS; 37 °C; no glycerol; cooperative
Sequence of NgCysK (Q5F9Q2 1-310): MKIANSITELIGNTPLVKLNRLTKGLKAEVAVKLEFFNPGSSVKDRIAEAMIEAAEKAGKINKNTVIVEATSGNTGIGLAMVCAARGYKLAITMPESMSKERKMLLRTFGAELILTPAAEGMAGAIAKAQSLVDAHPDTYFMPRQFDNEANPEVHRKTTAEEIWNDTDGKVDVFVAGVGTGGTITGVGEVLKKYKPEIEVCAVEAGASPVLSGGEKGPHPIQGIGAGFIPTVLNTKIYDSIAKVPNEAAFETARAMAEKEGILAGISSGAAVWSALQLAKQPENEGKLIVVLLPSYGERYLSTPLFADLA

SaCysK [2] = biological target: T1, SaCysK; settings: 10 mM OAS; MOPS; 37 °C; no glycerol

Ki (SaCysK [1]; 15 mM Na2S)	Structure (SMILES)	Km (NgCysK)	Km (SaCysK [2])	Ki (SaCysK [1]; 10 mM OAS)
6.265 ± 2.489 mM	CC(=O)OC[C@H](N)C(=O)O [O-acetylserine]			
	S [sodium sulfide]	23.6 ± 10.8 mM	2.31 ± 3.57 mM	15.970 ± 12.793 mM
